Laboratory results: ChEMBL document CHEMBL4808253, “Discovery of 1,3,4-oxadiazole derivatives as potential antitumor agents inhibiting the programmed cell death-1/programmed cell death-ligand 1 interaction” (Bioorg Med Chem, 2021)
The source made the active and inactive calls. The calls are words filed in the database; no cut-off is given here.

Key:
[1] = target: T1, Programmed cell death protein 1/Programmed cell death 1 ligand 1 (Homo sapiens, UniProt Q15116+Q9NZQ7); assay: Inhibition of PD1/PD-L1 (unknown origin); format: protein-complex assay
[2] = Toxicity in BALB/c mouse allografted with mouse CT26 cells assessed as body weight change at 30 mg/kg, ip for 48 hrs measured for 14 days relative to control; format: organism-based; conditions: in vivo, 336 h, time 14 day
CT26 [3] = assay: Antitumor activity against mouse CT26 cells allografted in BALB/c mouse assessed as tumor growth inhibition at 30 mg/kg, ip for 48 hrs measured for 14 days relative to control; format: functional; conditions: 336 h, time 14 day, read-out: TGI
[4] = Toxicity in BALB/c mouse allografted with mouse CT26 cells assessed as unusual behaviour at 30 mg/kg, ip for 48 hrs measured for 14 days relative to control; format: organism-based; conditions: in vivo, 336 h, time 14 day
[5] = target: T1, Programmed cell death protein 1/Programmed cell death 1 ligand 1; assay: Inhibition of PD1/PD-L1 (unknown origin) protein-protein interaction measured after 135 mins by TR-FRET assay relative to control; format: protein-complex assay
CT26 [6] = assay: Antitumor activity against […] in BALB/c mouse assessed as increase in infiltration of CD4+ T cells into tumor cells at 15 mg/kg, ip for 48 hrs in presence of 5-Fu by immunohistochemistry analysis; format: functional, organism-based
[7] = Toxicity in BALB/c mouse allografted with mouse CT26 cells assessed as unusual behaviour at 15 mg/kg, ip for 48 hrs measured for 14 days relative to control; format: organism-based; conditions: in vivo, 336 h, time 14 day
CT26 [8] = assay: Antiproliferative activity against […] cells assessed as inhibition of cell growth at 11.11 uM incubated for 48 hrs by MTT assay; format: functional; conditions: Mus musculus
CT26 [9] = assay: Antitumor activity against mouse CT26 cells allografted in BALB/c mouse assessed as tumor growth inhibition at 15 mg/kg, ip for 48 hrs measured for 14 days in presence of 5-Fu relative to control; format: functional; conditions: read-out: TGI
[10] = Toxicity in BALB/c mouse allografted with mouse CT26 cells assessed as body weight change at 15 mg/kg, ip for 48 hrs measured for 14 days relative to control; format: organism-based; conditions: in vivo, 336 h, time 14 day
CT26 [11] = assay: Antitumor activity against mouse CT26 cells allografted in BALB/c mouse assessed as tumor growth inhibition at 15 mg/kg, ip for 48 hrs measured for 14 days relative to control; format: functional; conditions: 336 h, time 14 day, read-out: TGI
CT26 [12] = assay: Antitumor activity against […] in BALB/c mouse assessed as increase in infiltration of CD4+ T cells into tumor cells at 15 mg/kg, ip for 48 hrs measured for 14 days relative to control; format: functional, organism-based
CT26 [13] = assay: Antiproliferative activity against mouse CT26 cells assessed as inhibition of cell growth incubated for 48 hrs by MTT assay; format: functional, cell-based; conditions: CT26, 48 h
[14] = Toxicity in BALB/c mouse allografted with mouse CT26 cells assessed as unusual behaviour at 15 mg/kg, ip for 24 hrs measured for 14 days relative to control; format: organism-based; conditions: in vivo, 336 h, time 14 day
[15] = Toxicity in BALB/c mouse allografted with mouse CT26 cells assessed as body weight change at 15 mg/kg, ip for 24 hrs measured for 14 days relative to control; format: organism-based; conditions: in vivo, 336 h, time 14 day
CT26 [16] = assay: Antitumor activity against mouse CT26 cells allografted in BALB/c mouse assessed as tumor growth inhibition at 15 mg/kg, ip for 24 hrs measured for 14 days relative to control; format: functional; conditions: 336 h, time 14 day, read-out: TGI

T1 sequence (Q15116 whole entry): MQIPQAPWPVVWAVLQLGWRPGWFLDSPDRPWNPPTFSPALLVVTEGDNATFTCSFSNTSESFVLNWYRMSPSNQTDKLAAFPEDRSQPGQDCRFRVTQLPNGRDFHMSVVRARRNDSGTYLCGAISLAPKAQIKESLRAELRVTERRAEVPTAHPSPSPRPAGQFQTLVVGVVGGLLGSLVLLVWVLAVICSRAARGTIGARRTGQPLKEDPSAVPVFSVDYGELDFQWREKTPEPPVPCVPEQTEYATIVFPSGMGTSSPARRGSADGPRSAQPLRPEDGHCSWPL
T1 sequence (Q9NZQ7 whole entry): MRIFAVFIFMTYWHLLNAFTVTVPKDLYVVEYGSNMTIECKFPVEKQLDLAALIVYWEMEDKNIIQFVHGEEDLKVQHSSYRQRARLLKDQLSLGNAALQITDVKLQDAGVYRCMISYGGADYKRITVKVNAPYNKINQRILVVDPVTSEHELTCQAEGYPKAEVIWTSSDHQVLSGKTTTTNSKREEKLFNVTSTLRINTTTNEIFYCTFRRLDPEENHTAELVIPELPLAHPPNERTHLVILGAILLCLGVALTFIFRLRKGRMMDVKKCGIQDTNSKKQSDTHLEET

SMILES: CS(=O)(=O)c1cncc(COc2nc(O[C@H]3CCc4c(-c5cccc6c5CC[C@@H]6Oc5nc(OCc6cncc(S(C)(=O)=O)c6)c(CN6C[C@@H](O)C[C@H]6C(=O)O)cc5Cl)cccc43)c(Cl)cc2CN2C[C@@H](O)C[C@H]2C(=O)O)c1
- IC50 [1]: 0.051 nM

SMILES: O=c1[nH]cc(F)c(=O)[nH]1 [FLUOROURACIL]
- Activity [2]: Non-Toxic
- inhibition in vivo at 30 mg/kg (CT26 [3]): 29.8%
- Activity [4]: Non-Toxic

SMILES: Cc1c(-c2nc3cc(CN4CCCC[C@H]4C(=O)O)cc(Cl)c3o2)cccc1-c1cccc(NC(=O)c2ccc(CNCCO)cn2)c1Cl
- IC50 [1]: < 10 nM

SMILES: Cc1ccccc1-c1cccc(COc2ccc(CNC(CO)(CO)CO)c(OCc3nnc(-c4ccccc4)o3)c2)c1C
- IC50 [5]: 150 nM

SMILES: Cc1c(COc2ccc(CNC(CO)(CO)CO)c(OCc3nc(-c4ccc(F)cc4)cs3)c2)cccc1-c1cccc(OCCCN2CCC(O)CC2)c1C
- IC50 [5]: 167 nM

SMILES: C[C@@](CO)(NCc1cc(Cl)c(O[C@H]2CCc3c(-c4cccc5c4CC[C@@H]5Oc4nc(OCc5cncc(S(C)(=O)=O)c5)c(CN[C@@](C)(CO)C(=O)O)cc4Cl)cccc32)nc1OCc1cncc(S(C)(=O)=O)c1)C(=O)O
- IC50 [1]: 0.058 nM

SMILES: Cc1c(COc2ccc(CNC(CO)(CO)CO)c(OCc3nnc(-c4ccccc4)o3)c2)cccc1-c1cccc(OCCCN2CCC(CO)CC2)c1
- Activity (CT26 [6]): Active
- Activity [7]: Non-Toxic
- inhibition at 11.11 µM (CT26 [8]): 75%
- inhibition in vivo at 15 mg/kg (CT26 [9]): 64.6%
- Activity [10]: Non-Toxic
- inhibition in vivo at 15 mg/kg (CT26 [11]): 35.7%
- IC50 [5]: 38 nM
- Activity (CT26 [12]): Active
- IC50 (CT26 [13]): 19800 nM

SMILES: Cc1c(COc2ccc(CNC(CO)(CO)CO)c(OCc3nc(-c4ccc(F)cc4)cs3)c2)cccc1-c1cccc(OCCCN2CCC(CO)CC2)c1
- IC50 [5]: 398 nM

SMILES: COc1nc(OCc2cccc(-c3ccccc3)c2C)ccc1CNCCNC(C)=O
- inhibition at 11.11 µM (CT26 [8]): 75%
- Activity [14]: Non-Toxic
- Activity [15]: Non-Toxic
- IC50 (CT26 [13]): 3350 nM
- inhibition in vivo at 15 mg/kg (CT26 [16]): 22.9%

SMILES: Cc1c(-c2nc3cc(CN4CC[C@@](C)(C(=O)O)C4)cc(C#N)c3o2)cccc1-c1cccc(NC(=O)c2nc3c(n2C)CCN(C[C@@H](C)O)C3)c1Cl
- IC50 [1]: < 10 nM

SMILES: Cc1c(COc2ccc(CNC(CO)(CO)CO)c(OCc3nnc(-c4ccccc4)o3)c2)cccc1-c1cccc(OCCCN2CCOCC2)c1
- IC50 [5]: 642 nM
